The values that follow come from PubChem BioAssay AID2060501 (Molecular Pharmacology Branch, DTP, NCI, 2025).

Each structure is given as a SMILES string.
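Also: spheroids exposed to compounds for 7 days before readout; percent of vehicle DMSO control viability with 100% = untreated-like growth.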

The first assay deals with 282377-053-R-J1-PDC complex spheroids, viability. Nature of the assay: Anticancer human tumor 282377-053-R-J1-PDC patient-derived colon adenocarcinoma cell line growth inhibition [GQUAD]. Particulars: second compound 0.0316 µM; first compound 3.16 µM; stronger effect = lower value. The method, boiled down:
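Tumor cells were grown as complex spheroids with HUVEC endothelial cells and mesenchymal stem cells as stroma. G-quadruplex stabilizers were combined with targeted agents over half-log dilutions from near the clinical Cmax, or from 10 microM.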
On to `COc1ncnc(C2CC2)c1-c1ncc2cnn(Cc3ccc(-c4nc(C(F)(F)F)cn4C(C)C)cc3)c2n1` + Cc1cnc(CNC(=O)c2c(=O)c3ccc(N4CCCN(C)CC4)nc3n3c2sc2ccccc23)cn1, for which the viability, T/C (usually the ratio of treated to control) was 123%.
As to `O=C(NO)c1cnc(N2CCN(S(=O)(=O)c3ccc4ccccc4c3)CC2)nc1` + Cc1cnc(CNC(=O)c2c(=O)c3ccc(N4CCCN(C)CC4)nc3n3c2sc2ccccc23)cn1, the viability, T/C was 0.07%.

The same assay, now with this note: second compound 0.0316 µM; first compound 10 µM; stronger effect = lower value.
Take `C=CCn1c(=O)c2cnc(Nc3ccc(N4CCN(C)CC4)cc3)nc2n1-c1cccc(C(C)(C)O)n1` + Cc1cnc(CNC(=O)c2c(=O)c3ccc(N4CCCN(C)CC4)nc3n3c2sc2ccccc23)cn1: the viability, T/C is 15.1%.
The same measure, in the same setting: the same measure for `CC(C)(O)C1CCC(Nc2ccc3ncc(-c4cccc(C(F)(F)F)c4)n3n2)CC1` (configuration not stated) + Cc1cnc(CNC(=O)c2c(=O)c3ccc(N4CCCN(C)CC4)nc3n3c2sc2ccccc23)cn1: 18.7%.
On to `COc1ncnc(C2CC2)c1-c1ncc2cnn(Cc3ccc(-c4nc(C(F)(F)F)cn4C(C)C)cc3)c2n1` + Cc1cnc(CNC(=O)c2c(=O)c3ccc(N4CCCN(C)CC4)nc3n3c2sc2ccccc23)cn1, for which the viability, T/C is 95.3%.
With `O=C(NO)c1cnc(N2CCN(S(=O)(=O)c3ccc4ccccc4c3)CC2)nc1` + Cc1cnc(CNC(=O)c2c(=O)c3ccc(N4CCCN(C)CC4)nc3n3c2sc2ccccc23)cn1, the viability, T/C was 0.11%.

The same assay, now with this note: second compound 0.1 µM; first compound 0.0316 µM; stronger effect = lower value.
Turning to `C=CCn1c(=O)c2cnc(Nc3ccc(N4CCN(C)CC4)cc3)nc2n1-c1cccc(C(C)(C)O)n1` + Cc1cnc(CNC(=O)c2c(=O)c3ccc(N4CCCN(C)CC4)nc3n3c2sc2ccccc23)cn1, the viability, T/C was 115%.
On the same count and under the same terms, the same measure for `CC(C)(O)C1CCC(Nc2ccc3ncc(-c4cccc(C(F)(F)F)c4)n3n2)CC1` (configuration not stated) + Cc1cnc(CNC(=O)c2c(=O)c3ccc(N4CCCN(C)CC4)nc3n3c2sc2ccccc23)cn1: 113%; for `COc1ncnc(C2CC2)c1-c1ncc2cnn(Cc3ccc(-c4nc(C(F)(F)F)cn4C(C)C)cc3)c2n1` + Cc1cnc(CNC(=O)c2c(=O)c3ccc(N4CCCN(C)CC4)nc3n3c2sc2ccccc23)cn1: 121%.
The same measure, in the same setting: the figure for `O=C(NO)c1cnc(N2CCN(S(=O)(=O)c3ccc4ccccc4c3)CC2)nc1` + Cc1cnc(CNC(=O)c2c(=O)c3ccc(N4CCCN(C)CC4)nc3n3c2sc2ccccc23)cn1 is 99.3%.

The assay is the same for the next values; noted with them: second compound 0.1 µM; first compound 0.1 µM; stronger effect = lower value.
Take `C=CCn1c(=O)c2cnc(Nc3ccc(N4CCN(C)CC4)cc3)nc2n1-c1cccc(C(C)(C)O)n1` + Cc1cnc(CNC(=O)c2c(=O)c3ccc(N4CCCN(C)CC4)nc3n3c2sc2ccccc23)cn1: the viability, T/C is 115%.
On the same count and under the same terms, the same measure for `CC(C)(O)C1CCC(Nc2ccc3ncc(-c4cccc(C(F)(F)F)c4)n3n2)CC1` (configuration not stated) + Cc1cnc(CNC(=O)c2c(=O)c3ccc(N4CCCN(C)CC4)nc3n3c2sc2ccccc23)cn1: 79.1%; for `COc1ncnc(C2CC2)c1-c1ncc2cnn(Cc3ccc(-c4nc(C(F)(F)F)cn4C(C)C)cc3)c2n1` + Cc1cnc(CNC(=O)c2c(=O)c3ccc(N4CCCN(C)CC4)nc3n3c2sc2ccccc23)cn1: 96.2%.
On the same count and under the same terms, the same measure for `O=C(NO)c1cnc(N2CCN(S(=O)(=O)c3ccc4ccccc4c3)CC2)nc1` + Cc1cnc(CNC(=O)c2c(=O)c3ccc(N4CCCN(C)CC4)nc3n3c2sc2ccccc23)cn1: 88%.

The assay is the same for the next values; noted with them: second compound 0.1 µM; first compound 0.316 µM; stronger effect = lower value.
`C=CCn1c(=O)c2cnc(Nc3ccc(N4CCN(C)CC4)cc3)nc2n1-c1cccc(C(C)(C)O)n1` + Cc1cnc(CNC(=O)c2c(=O)c3ccc(N4CCCN(C)CC4)nc3n3c2sc2ccccc23)cn1: the viability, T/C is 99.6%.
Same read-out and setting: the figure for `CC(C)(O)C1CCC(Nc2ccc3ncc(-c4cccc(C(F)(F)F)c4)n3n2)CC1` (configuration not stated) + Cc1cnc(CNC(=O)c2c(=O)c3ccc(N4CCCN(C)CC4)nc3n3c2sc2ccccc23)cn1 is 68.8%.
Same read-out and setting: the same measure for `COc1ncnc(C2CC2)c1-c1ncc2cnn(Cc3ccc(-c4nc(C(F)(F)F)cn4C(C)C)cc3)c2n1` + Cc1cnc(CNC(=O)c2c(=O)c3ccc(N4CCCN(C)CC4)nc3n3c2sc2ccccc23)cn1: 94.4%.
Regarding `O=C(NO)c1cnc(N2CCN(S(=O)(=O)c3ccc4ccccc4c3)CC2)nc1` + Cc1cnc(CNC(=O)c2c(=O)c3ccc(N4CCCN(C)CC4)nc3n3c2sc2ccccc23)cn1, the viability, T/C was 63.5%.

Staying with this assay, now noted: second compound 0.1 µM; first compound 1 µM; stronger effect = lower value.
Regarding `C=CCn1c(=O)c2cnc(Nc3ccc(N4CCN(C)CC4)cc3)nc2n1-c1cccc(C(C)(C)O)n1` + Cc1cnc(CNC(=O)c2c(=O)c3ccc(N4CCCN(C)CC4)nc3n3c2sc2ccccc23)cn1, the viability, T/C was 62.8%.
In the case of `CC(C)(O)C1CCC(Nc2ccc3ncc(-c4cccc(C(F)(F)F)c4)n3n2)CC1` (configuration not stated) + Cc1cnc(CNC(=O)c2c(=O)c3ccc(N4CCCN(C)CC4)nc3n3c2sc2ccccc23)cn1, the viability, T/C is 62.5%.
Same read-out and setting: the figure for `COc1ncnc(C2CC2)c1-c1ncc2cnn(Cc3ccc(-c4nc(C(F)(F)F)cn4C(C)C)cc3)c2n1` + Cc1cnc(CNC(=O)c2c(=O)c3ccc(N4CCCN(C)CC4)nc3n3c2sc2ccccc23)cn1 is 100%.
In the case of `O=C(NO)c1cnc(N2CCN(S(=O)(=O)c3ccc4ccccc4c3)CC2)nc1` + Cc1cnc(CNC(=O)c2c(=O)c3ccc(N4CCCN(C)CC4)nc3n3c2sc2ccccc23)cn1, the viability, T/C was 1.62%.

Staying with this assay, now noted: second compound 0.1 µM; first compound 3.16 µM; stronger effect = lower value.
Take `C=CCn1c(=O)c2cnc(Nc3ccc(N4CCN(C)CC4)cc3)nc2n1-c1cccc(C(C)(C)O)n1` + Cc1cnc(CNC(=O)c2c(=O)c3ccc(N4CCCN(C)CC4)nc3n3c2sc2ccccc23)cn1: the viability, T/C is 24.6%.
On the same count and under the same terms, the same measure for `CC(C)(O)C1CCC(Nc2ccc3ncc(-c4cccc(C(F)(F)F)c4)n3n2)CC1` (configuration not stated) + Cc1cnc(CNC(=O)c2c(=O)c3ccc(N4CCCN(C)CC4)nc3n3c2sc2ccccc23)cn1: 16%; for `COc1ncnc(C2CC2)c1-c1ncc2cnn(Cc3ccc(-c4nc(C(F)(F)F)cn4C(C)C)cc3)c2n1` + Cc1cnc(CNC(=O)c2c(=O)c3ccc(N4CCCN(C)CC4)nc3n3c2sc2ccccc23)cn1: 125%.
Same read-out and setting: the same measure for `O=C(NO)c1cnc(N2CCN(S(=O)(=O)c3ccc4ccccc4c3)CC2)nc1` + Cc1cnc(CNC(=O)c2c(=O)c3ccc(N4CCCN(C)CC4)nc3n3c2sc2ccccc23)cn1: 0.05%.

The same assay, now with this note: second compound 0.1 µM; first compound 10 µM; stronger effect = lower value.
As for `C=CCn1c(=O)c2cnc(Nc3ccc(N4CCN(C)CC4)cc3)nc2n1-c1cccc(C(C)(C)O)n1` + Cc1cnc(CNC(=O)c2c(=O)c3ccc(N4CCCN(C)CC4)nc3n3c2sc2ccccc23)cn1, the viability, T/C is 11.7%.
Consider `CC(C)(O)C1CCC(Nc2ccc3ncc(-c4cccc(C(F)(F)F)c4)n3n2)CC1` (configuration not stated) + Cc1cnc(CNC(=O)c2c(=O)c3ccc(N4CCCN(C)CC4)nc3n3c2sc2ccccc23)cn1, for which the viability, T/C is 20.9%.
With `COc1ncnc(C2CC2)c1-c1ncc2cnn(Cc3ccc(-c4nc(C(F)(F)F)cn4C(C)C)cc3)c2n1` + Cc1cnc(CNC(=O)c2c(=O)c3ccc(N4CCCN(C)CC4)nc3n3c2sc2ccccc23)cn1, the viability, T/C was 93.5%.
Same read-out and setting: the same measure for `O=C(NO)c1cnc(N2CCN(S(=O)(=O)c3ccc4ccccc4c3)CC2)nc1` + Cc1cnc(CNC(=O)c2c(=O)c3ccc(N4CCCN(C)CC4)nc3n3c2sc2ccccc23)cn1: 0.11%.

Staying with this assay, now noted: second compound 0.316 µM; first compound 0.0316 µM; stronger effect = lower value.
In the case of `C=CCn1c(=O)c2cnc(Nc3ccc(N4CCN(C)CC4)cc3)nc2n1-c1cccc(C(C)(C)O)n1` + Cc1cnc(CNC(=O)c2c(=O)c3ccc(N4CCCN(C)CC4)nc3n3c2sc2ccccc23)cn1, the viability, T/C is 102%.
Still for that read-out and setting: the figure for `CC(C)(O)C1CCC(Nc2ccc3ncc(-c4cccc(C(F)(F)F)c4)n3n2)CC1` (configuration not stated) + Cc1cnc(CNC(=O)c2c(=O)c3ccc(N4CCCN(C)CC4)nc3n3c2sc2ccccc23)cn1 is 77.9%.
On the same count and under the same terms, the figure for `COc1ncnc(C2CC2)c1-c1ncc2cnn(Cc3ccc(-c4nc(C(F)(F)F)cn4C(C)C)cc3)c2n1` + Cc1cnc(CNC(=O)c2c(=O)c3ccc(N4CCCN(C)CC4)nc3n3c2sc2ccccc23)cn1 is 105%; for `O=C(NO)c1cnc(N2CCN(S(=O)(=O)c3ccc4ccccc4c3)CC2)nc1` + Cc1cnc(CNC(=O)c2c(=O)c3ccc(N4CCCN(C)CC4)nc3n3c2sc2ccccc23)cn1 it is 84.3%.

The assay is the same for the next values; noted with them: second compound 0.316 µM; first compound 0.1 µM; stronger effect = lower value.
As to `C=CCn1c(=O)c2cnc(Nc3ccc(N4CCN(C)CC4)cc3)nc2n1-c1cccc(C(C)(C)O)n1` + Cc1cnc(CNC(=O)c2c(=O)c3ccc(N4CCCN(C)CC4)nc3n3c2sc2ccccc23)cn1, the viability, T/C is 97.8%.
Take `CC(C)(O)C1CCC(Nc2ccc3ncc(-c4cccc(C(F)(F)F)c4)n3n2)CC1` (configuration not stated) + Cc1cnc(CNC(=O)c2c(=O)c3ccc(N4CCCN(C)CC4)nc3n3c2sc2ccccc23)cn1: the viability, T/C was 82.2%.
On the same count and under the same terms, the same measure for `COc1ncnc(C2CC2)c1-c1ncc2cnn(Cc3ccc(-c4nc(C(F)(F)F)cn4C(C)C)cc3)c2n1` + Cc1cnc(CNC(=O)c2c(=O)c3ccc(N4CCCN(C)CC4)nc3n3c2sc2ccccc23)cn1: 78.3%; for `O=C(NO)c1cnc(N2CCN(S(=O)(=O)c3ccc4ccccc4c3)CC2)nc1` + Cc1cnc(CNC(=O)c2c(=O)c3ccc(N4CCCN(C)CC4)nc3n3c2sc2ccccc23)cn1: 64.7%.

Staying with this assay, now noted: second compound 0.316 µM; first compound 0.316 µM; stronger effect = lower value.
Regarding `C=CCn1c(=O)c2cnc(Nc3ccc(N4CCN(C)CC4)cc3)nc2n1-c1cccc(C(C)(C)O)n1` + Cc1cnc(CNC(=O)c2c(=O)c3ccc(N4CCCN(C)CC4)nc3n3c2sc2ccccc23)cn1, the viability, T/C was 73.4%.
The same measure, in the same setting: the figure for `CC(C)(O)C1CCC(Nc2ccc3ncc(-c4cccc(C(F)(F)F)c4)n3n2)CC1` (configuration not stated) + Cc1cnc(CNC(=O)c2c(=O)c3ccc(N4CCCN(C)CC4)nc3n3c2sc2ccccc23)cn1 is 77.9%; for `COc1ncnc(C2CC2)c1-c1ncc2cnn(Cc3ccc(-c4nc(C(F)(F)F)cn4C(C)C)cc3)c2n1` + Cc1cnc(CNC(=O)c2c(=O)c3ccc(N4CCCN(C)CC4)nc3n3c2sc2ccccc23)cn1 it is 71.1%.
The same measure, in the same setting: the same measure for `O=C(NO)c1cnc(N2CCN(S(=O)(=O)c3ccc4ccccc4c3)CC2)nc1` + Cc1cnc(CNC(=O)c2c(=O)c3ccc(N4CCCN(C)CC4)nc3n3c2sc2ccccc23)cn1: 39.2%.
